From patent US11395847B2, “Acylated GLP-1/GLP-2 dual agonists” (Zealand Pharma A/S, priority 2016, dated 2022)
Where two headings read alike, the source gives them in different places. *1 amine or outer side, *2 acyl side, *3 side chain or, on linkers, in order; H or OH if unused. Where a SMILES comes first, the peptide text is derived from it. Side-chain parts run from the residue outwards. [ ]: non-standard residue; d: D form. The star is where a group is joined. C20 diacid = O=C(O)CCCCCCCCCCCCCCCCCCC(=O)*; γGlu = O=C(O)[C@H](CCC(=O)[*:2])N[*:1]; AEEA = NCCOCCOCC(=O)O; Aib = CC(C)(N)C(=O)O

Assays:
[1] = Solubility assessment (turbidity absorbance at 325 nm); assay type: physicochemical
Procedure: A stock solution of the test peptide (2 mg/ml; determined from the weighed amount of peptide) in demineralized water adjusted to pH 2.5 with HCl was prepared, and aliquots were diluted 1:1 in 100 mM acetate buffer (pH 4.0 and pH 5.0), 100 mM histidine buffer (pH 6.0 and pH 7.0) and 100 mM phosphate buffer (pH 6.0, pH 7.0 and pH 7.5), respectively, and loaded in a standard flat-bottom, non-sterile 96-well UV Microplate. The absorbance of samples (single samples, n=1) at 280 and 325 nm was measured in an absorbance-based plate reader, which was preheated to ambient temperature (typically 25° C.).

[2] = Chemical stability (RP-HPLC normalized purity after incubation at 40° C.); assay type: physicochemical; settings: 14-day incubation, 0.2 mg/ml, normalized purity (area-%); for pH 7 normalized stability: pH 7, 40° C.
Procedure: Samples of each test peptide were dissolved in MILLIQ™ water, and the pH of the solution was adjusted to pH 6, 7, 7.5 or 9 using either HCl or NaOH. The final peptide concentration was 0.2 mg/ml. Samples were placed in glass vials and incubated at 40° C. The samples were analyzed by RP-HPLC on a C18 column with gradient elution using an acetonitrile/TFA/water eluent system. The area-percentage (area-%) of the main peak after incubation time T=t (relative to time T=0) was determined by UV spectroscopy at 220 nm.
The purity was first determined as follows: Purity(area-%)=(area of main peak/total area of all peaks)×100.
The purity was then normalized between time points by setting purity at time 0 (T=0) to 100 for each pH value for a given peptide, as follows: Normalized area-% at time t(T=t)=[area-%(T=t)/area-%(T=0)]×100.
The chemical stability assessment results after 14-day incubation (in the form of normalized purity values) are summarized in Table 4.

[3] = 100 mM acetate buffer pH 4.0, ambient temperature, read-out: Solubility Acetate buffer pH 4
[4] = 100 mM acetate buffer pH 5.0, ambient temperature, read-out: Solubility Acetate buffer pH 5
[5] = 100 mM histidine buffer pH 6.0, ambient temperature, read-out: Solubility Histidine buffer pH 6
[6] = 100 mM histidine buffer pH 7.0, ambient temperature, read-out: Solubility Histidine buffer pH 7
[7] = 100 mM phosphate buffer pH 6.0, ambient temperature, read-out: Solubility Phosphate buffer pH 6
[8] = 100 mM phosphate buffer pH 7.0, ambient temperature, read-out: Solubility Phosphate buffer pH 7
[9] = 100 mM phosphate buffer pH 7.5, ambient temperature, read-out: Solubility Phosphate buffer pH 7.5

solubility [1, 3]	solubility [1, 4]	solubility [1, 5]	solubility [1, 6]	solubility [1, 7]	solubility [1, 8]	solubility [1, 9]	pH 7 normalized stability [2]	pH 6 normalized stability ([2]; pH 6, 40° C.)	Structure (SMILES)
< 1000 µg/mL	< 1000 µg/mL	≥ 1000 µg/mL	≥ 1000 µg/mL	≥ 1000 µg/mL	≥ 1000 µg/mL	≥ 1000 µg/mL			CC[C@H](C)[C@H](NC(=O)[C@H](Cc1ccccc1)NC(=O)[C@H](CC(=O)O)NC(=O)[C@H](CCCNC(=N)N)NC(=O)[C@H](C)NC(=O)[C@H](C)NC(=O)[C@H](CCC(N)=O)NC(=O)[C@H](CCCCNC(=O)CC[C@H](NC(=O)CCCCCCCCCCCCCCCCC(=O)O)C(=O)O)NC(=O)[C@H](CC(=O)O)NC(=O)[C@H](CC(C)C)NC(=O)[C@@H](NC(=O)[C@@H](NC(=O)[C@H](C)NC(=O)[C@H](CC(C)C)NC(=O)[C@H](CCC(=O)O)NC(=O)[C@H](CO)NC(=O)[C@H](CO)NC(=O)[C@H](Cc1ccccc1)NC(=O)[C@@H](NC(=O)CNC(=O)[C@H](CCC(=O)O)NC(=O)C(C)(C)NC(=O)[C@@H](N)Cc1c[nH]cn1)[C@@H](C)O)[C@@H](C)O)[C@@H](C)CC)C(=O)N[C@@H](C)C(=O)N[C@@H](Cc1c[nH]c2ccccc12)C(=O)N[C@@H](CC(C)C)C(=O)N[C@H](C(=O)N[C@@H](CCC(=O)O)C(=O)N[C@@H](Cc1c[nH]cn1)C(=O)N[C@@H](CCCCN)C(=O)N[C@H](C(=O)N[C@H](C(=O)N[C@@H](CC(=O)O)C(=O)O)[C@@H](C)O)[C@@H](C)CC)[C@@H](C)CC [Compound 20] (HELM PEPTIDE1{H.[Aib].E.G.T.F.S.S.E.L.A.T.I.L.D.K.Q.A.A.R.D.F.I.A.W.L.I.E.H.K.I.T.D}|PEPTIDE2{[O=C(O)CCCCCCCCCCCCCCCCC(=O)[*:2]].[gGlu]}$PEPTIDE1,PEPTIDE2,16:R3-2:R2$$$V2.0)
							A (>90% normalised stability)		CC[C@H](C)[C@H](NC(=O)[C@H](Cc1ccccc1)NC(=O)[C@H](CC(=O)O)NC(=O)[C@H](CCCNC(=N)N)NC(=O)[C@H](C)NC(=O)[C@H](C)NC(=O)[C@H](CCC(N)=O)NC(=O)[C@H](CCC(=O)O)NC(=O)[C@H](CC(=O)O)NC(=O)[C@H](CC(C)C)NC(=O)[C@@H](NC(=O)[C@@H](NC(=O)[C@H](C)NC(=O)[C@H](CCCCNC(=O)COCCOCCNC(=O)COCCOCCNC(=O)[C@H](CCCCN)NC(=O)[C@H](CCC(=O)O)NC(=O)[C@H](CCCCN)NC(=O)CC[C@H](NC(=O)CCCCCCCCCCCCCCCCCCC(=O)O)C(=O)O)NC(=O)[C@H](CCC(=O)O)NC(=O)[C@H](CO)NC(=O)[C@@H](NC(=O)[C@H](Cc1ccccc1)NC(=O)[C@H](CO)NC(=O)CNC(=O)[C@H](CCC(=O)O)NC(=O)C(C)(C)NC(=O)[C@@H](N)Cc1c[nH]cn1)[C@@H](C)O)[C@@H](C)O)[C@@H](C)CC)C(=O)N[C@@H](C)C(=O)N[C@@H](Cc1c[nH]c2ccccc12)C(=O)N[C@@H](CC(C)C)C(=O)N[C@H](C(=O)N[C@@H](CCC(=O)O)C(=O)N[C@@H](Cc1c[nH]cn1)C(=O)N[C@@H](CCCCN)C(=O)N[C@H](C(=O)N[C@H](C(=O)N[C@@H](CC(=O)O)C(=O)O)[C@@H](C)O)[C@@H](C)CC)[C@@H](C)CC [Compound 55] (H-H[Aib]EGSFTSEK([AEEA-AEEA-Lys-Glu-Lys-γGlu-C20 diacid])ATILDEQAARDFIAWLIEHKITD-OH)
							A (>90% normalised stability)		CC[C@H](C)[C@H](NC(=O)[C@H](Cc1ccccc1)NC(=O)[C@H](CC(=O)O)NC(=O)[C@H](CCCNC(=N)N)NC(=O)[C@H](C)NC(=O)[C@H](C)NC(=O)[C@H](CCC(N)=O)NC(=O)[C@H](CCCCNC(=O)COCCOCCNC(=O)COCCOCCNC(=O)CC[C@H](NC(=O)CCCCCCCCCCCCCCCCCCC(=O)O)C(=O)O)NC(=O)[C@H](CC(=O)O)NC(=O)[C@H](CC(C)C)NC(=O)[C@@H](NC(=O)[C@@H](NC(=O)[C@H](C)NC(=O)[C@H](CC(C)C)NC(=O)[C@H](CCC(=O)O)NC(=O)[C@H](CO)NC(=O)[C@@H](NC(=O)[C@H](Cc1ccccc1)NC(=O)[C@H](CO)NC(=O)CNC(=O)[C@H](CCC(=O)O)NC(=O)C(C)(C)NC(=O)[C@@H](N)Cc1c[nH]cn1)[C@@H](C)O)[C@@H](C)O)[C@@H](C)CC)C(=O)N[C@@H](C)C(=O)N[C@@H](Cc1c[nH]c2ccccc12)C(=O)N[C@@H](CC(C)C)C(=O)N[C@@H](CCCCN)C(=O)N[C@@H](CCC(N)=O)C(=O)N[C@@H](Cc1c[nH]cn1)C(=O)N[C@@H](CCCCN)C(=O)N[C@H](C(=O)N[C@H](C(=O)N[C@@H](CC(=O)O)C(=O)O)[C@@H](C)O)[C@@H](C)CC [Compound 34] (H-H[Aib]EGSFTSELATILDK([AEEA-AEEA-γGlu-C20 diacid])QAARDFIAWLKQHKITD-OH)
< 1000 µg/mL	< 1000 µg/mL	≥ 1000 µg/mL	≥ 1000 µg/mL	≥ 1000 µg/mL	≥ 1000 µg/mL	≥ 1000 µg/mL			CC[C@H](C)[C@H](NC(=O)[C@H](Cc1ccccc1)NC(=O)[C@H](CC(=O)O)NC(=O)[C@H](CCCNC(=N)N)NC(=O)[C@H](C)NC(=O)[C@H](C)NC(=O)[C@H](CCC(N)=O)NC(=O)[C@H](CCCCNC(=O)CC[C@H](NC(=O)CCCCCCCCCCCCCCCCC(=O)O)C(=O)O)NC(=O)[C@H](CC(=O)O)NC(=O)[C@H](CC(C)C)NC(=O)[C@@H](NC(=O)[C@@H](NC(=O)[C@H](C)NC(=O)[C@H](CC(C)C)NC(=O)[C@H](CCC(=O)O)NC(=O)[C@H](CO)NC(=O)[C@@H](NC(=O)[C@H](Cc1ccccc1)NC(=O)[C@H](CO)NC(=O)CNC(=O)[C@H](CCC(=O)O)NC(=O)C(C)(C)NC(=O)[C@@H](N)Cc1c[nH]cn1)[C@@H](C)O)[C@@H](C)O)[C@@H](C)CC)C(=O)N[C@@H](C)C(=O)N[C@@H](Cc1c[nH]c2ccccc12)C(=O)N[C@@H](CC(C)C)C(=O)N[C@H](C(=O)N[C@@H](Cc1ccc(O)cc1)C(=O)N[C@@H](Cc1c[nH]cn1)C(=O)N[C@@H](CCCCN)C(=O)N[C@H](C(=O)N[C@H](C(=O)N[C@@H](CC(=O)O)C(=O)O)[C@@H](C)O)[C@@H](C)CC)[C@@H](C)CC [Compound 27] (HELM PEPTIDE1{H.[Aib].E.G.S.F.T.S.E.L.A.T.I.L.D.K.Q.A.A.R.D.F.I.A.W.L.I.Y.H.K.I.T.D}|PEPTIDE2{[O=C(O)CCCCCCCCCCCCCCCCC(=O)[*:2]].[gGlu]}$PEPTIDE1,PEPTIDE2,16:R3-2:R2$$$V2.0)
							A (>90% normalised stability)	A (>90% normalised stability)	CC[C@H](C)[C@H](NC(=O)[C@H](Cc1ccccc1)NC(=O)[C@H](CC(=O)O)NC(=O)[C@H](CCCNC(=N)N)NC(=O)[C@H](C)NC(=O)[C@H](C)NC(=O)[C@H](CCC(N)=O)NC(=O)[C@H](CCCCNC(=O)CC[C@H](NC(=O)CCCCCCCCCCCCCCCCC(=O)O)C(=O)O)NC(=O)[C@H](CC(=O)O)NC(=O)[C@H](CC(C)C)NC(=O)[C@@H](NC(=O)[C@@H](NC(=O)[C@H](C)NC(=O)[C@H](CC(C)C)NC(=O)[C@H](CCC(=O)O)NC(=O)[C@H](CO)NC(=O)[C@H](CO)NC(=O)[C@H](Cc1ccccc1)NC(=O)[C@H](CO)NC(=O)CNC(=O)[C@H](CCC(=O)O)NC(=O)C(C)(C)NC(=O)[C@@H](N)Cc1c[nH]cn1)[C@@H](C)O)[C@@H](C)CC)C(=O)N[C@@H](C)C(=O)N[C@@H](Cc1c[nH]c2ccccc12)C(=O)N[C@@H](CC(C)C)C(=O)N[C@H](C(=O)N[C@@H](CCC(N)=O)C(=O)N[C@@H](Cc1c[nH]cn1)C(=O)N[C@@H](CCCCN)C(=O)N[C@H](C(=O)N[C@H](C(=O)N[C@@H](CC(=O)O)C(=O)O)[C@@H](C)O)[C@@H](C)CC)[C@@H](C)CC [B, reference compound] (HELM PEPTIDE1{H.[Aib].E.G.S.F.S.S.E.L.A.T.I.L.D.K.Q.A.A.R.D.F.I.A.W.L.I.Q.H.K.I.T.D}|PEPTIDE2{[O=C(O)CCCCCCCCCCCCCCCCC(=O)[*:2]].[gGlu]}$PEPTIDE1,PEPTIDE2,16:R3-2:R2$$$V2.0)
< 1000 µg/mL	< 1000 µg/mL	< 1000 µg/mL	≥ 1000 µg/mL	< 1000 µg/mL	< 1000 µg/mL	≥ 1000 µg/mL			CC[C@H](C)[C@H](NC(=O)[C@H](Cc1ccccc1)NC(=O)[C@H](CC(=O)O)NC(=O)[C@H](CCCNC(=N)N)NC(=O)[C@H](C)NC(=O)[C@H](C)NC(=O)[C@H](CC(C)C)NC(=O)[C@H](CC(N)=O)NC(=O)[C@H](CC(=O)O)NC(=O)[C@H](CC(C)C)NC(=O)[C@@H](NC(=O)[C@@H](NC(=O)[C@H](CC(N)=O)NC(=O)[C@H](CCSC)NC(=O)[C@H](CCC(=O)O)NC(=O)[C@H](CC(=O)O)NC(=O)[C@H](CO)NC(=O)[C@H](Cc1ccccc1)NC(=O)[C@H](CO)NC(=O)CNC(=O)[C@H](CC(=O)O)NC(=O)CNC(=O)[C@@H](N)Cc1c[nH]cn1)[C@@H](C)O)[C@@H](C)CC)C(=O)N[C@@H](CC(N)=O)C(=O)N[C@@H](Cc1c[nH]c2ccccc12)C(=O)N[C@@H](CC(C)C)C(=O)N[C@H](C(=O)N[C@@H](CCC(N)=O)C(=O)N[C@H](C(=O)N[C@@H](CCCCN)C(=O)N[C@H](C(=O)N[C@H](C(=O)N[C@@H](CC(=O)O)C(=O)O)[C@@H](C)O)[C@@H](C)CC)[C@@H](C)O)[C@@H](C)CC [Teduglutide, [Gly2]-hGLP-2 (1-33), reference compound]
